Assay results from US20250295648A1 (priority 2024, published 2025).
Several values for one entry are separate records, joined by “and”; a condition that tells them apart may be missing. Equal entries are not always repeated.

System: L-DOPA-induced dyskinesia in Parkinson's disease patients
Assay: Unified Dyskinesia Rating Scale (UDysRS) after 150% L-DOPA challenge
Settings: for UDysRS Parts 3 and 4 most severe, collected value, mean / UDysRS Parts 3 and 4 most severe, collected value, median / UDysRS Parts 1, 2, 3, and 4 average, absolute change from baseline, mean / UDysRS Parts 1, 2, 3, and 4 average, absolute change from baseline, median / UDysRS Parts 1, 2, 3, and 4 average, collected value, mean / UDysRS Parts 1, 2, 3, and 4 average, collected value, median / UDysRS Parts 1, 2, 3, and 4 average, relative change from baseline (%), mean / UDysRS Parts 1, 2, 3, and 4 average, relative change from baseline (%), median / UDysRS Parts 1, 2, 3, and 4 most severe, absolute change from baseline, mean / UDysRS Parts 1, 2, 3, and 4 most severe, absolute change from baseline, median / UDysRS Parts 1, 2, 3, and 4 most severe, collected value, mean / UDysRS Parts 1, 2, 3, and 4 most severe, collected value, median / UDysRS Parts 1, 2, 3, and 4 most severe, relative change from baseline (%), mean / UDysRS Parts 1, 2, 3, and 4 most severe, relative change from baseline (%), median / UDysRS Parts 3 and 4 average, absolute change from baseline, mean / UDysRS Parts 3 and 4 average, absolute change from baseline, median / UDysRS Parts 3 and 4 average, collected value, mean / UDysRS Parts 3 and 4 average, collected value, median / UDysRS Parts 3 and 4 average, relative change from baseline (%), mean / UDysRS Parts 3 and 4 average, relative change from baseline (%), median / UDysRS Parts 3 and 4 most severe, absolute change from baseline, mean / UDysRS Parts 3 and 4 most severe, absolute change from baseline, median / UDysRS Parts 3 and 4 most severe, relative change from baseline (%), mean / UDysRS Parts 3 and 4 most severe, relative change from baseline (%), median: per protocol analysis set, N = 15; for UDysRS Parts 3 + 4, highest score of assessment sessions, mean change from baseline / UDysRS Part 3 sum of items, average of assessment sessions, mean change from baseline / UDysRS Part 3 sum of items, highest score of assessment sessions, mean change from baseline / UDysRS Parts 3 + 4, average of assessment sessions, mean change from baseline / UDysRS Total (Parts 1 to 4), average of assessment sessions, mean change from baseline / UDysRS Total (Parts 1 to 4), highest score of assessment sessions, mean change from baseline: per-protocol set; for UDysRS Part 3 sum of items, average of assessment sessions, mean change from baseline: p < 0.05 vs placebo
[1] = Visit 6 Clinic Efficacy Visit (Day 28)
[2] = Visit 7 Clinic Efficacy Visit (Day 42)
[3] = days 28 and 42, within NLX-112 group
[4] = individual patients A-E co-treated with amantadine
[5] = per-protocol set (n = 15), Baseline
[6] = Δ D 28 (end of up-titration), p < 0.01 vs baseline
[7] = Δ D 42 (end of stable dosing), p < 0.001 vs baseline
[8] = Δ D 42 (end of stable dosing), p < 0.01 vs baseline

Method: Patients were rated for dyskinesia at baseline and on days 28 (at end of up-titration period) and 42 (end of stable dosing period). Because the level of dyskinesia experienced by patients can vary over time, they were given 150% (i.e., 1.5×) of their regular L-DOPA dose (up to a maximum of 250 mg) as a challenge 30 min before each dyskinesia assessment to improve comparability between patients and between visits. Patients were filmed 30, 60 and 90 min after dosing with L-DOPA (˜5 min of filming each time). LID was assessed using the Unified Dyskinesia Rating Scale (UDysRS). Changes from baseline are shown for total score (i.e., Parts 1 to 4), for total objective score (i.e., Parts 3+4), and for the sum of Part 3 objective impairment assessment scores. Because objective LID assessment was carried out at 3 time-points (30, 60 and 90 min) following L-DOPA challenge, the above parameters were analyzed based on the most severe of the three scores as well as on the average score of the 3 time points.
The patient took 150% of their normal L-DOPA dose 30 minutes prior to the start of efficacy assessments (UDysRS) at Day 1 (Visit 2), Day 28 (Visit 6) and Day 42 (Visit 7).
The UDysRS is a rating instrument designed to assess the core features of dyskinesia in Parkinson's Disease. The UDysRS consists of 4 parts: • r. Part I, historical disability with regard to the patient's perceptions of the impact on activities of ADL of on-dyskinesia. • s. Part II, historical disability with regard to the patient's perceptions of the impact on ADL of off-dystonia. • t. Part III, objective impairment, which assesses severity of dyskinesia, affected body parts, and type of impairment (choreic vs. dystonic). • u. Part IV, objective disability, based on an evaluation of Part III activities.
Each item in the UDysRS is scored from 0 to 4, with a possible maximum total score of 104.
The UDysRS assessment would be performed at baseline (Day 1, Visit 2), Day 28 and Day 42 (Visits 6 and 7) starting approximately 30 minutes after the L-DOPA challenge on these days.
The data for all 3 assessments performed at each visit would be entered in the eCRF and the Investigator will highlight which of the assessments, corresponding to the assessment where the patient had most severe dyskinesia, that would be used in the descriptive summaries of data.
Change from baseline in the UDysRS total score to Visit 6 (Day 28) and Visit 7 (Day 42) respectively would be summarized using descriptive statistics. […] The same analysis would be done for UDysRS total objective score Part III and IV only.
The baseline value of the dependent variable has been included in the model as a continuous covariate.

Structure (SMILES): Cc1ccc(CNCC2(F)CCN(C(=O)c3ccc(F)c(Cl)c3)CC2)nc1 [NLX-112, (3-chloro-4-fluoro-phenyl)-[4-fluoro-4-{[(5-methyl-pyridin-2-ylmethyl)-amino]-methyl}piperidin-1-yl]methanone]
- UDysRS Parts 3 and 4 most severe, collected value, mean (Visit 2 Baseline): 15.5
- UDysRS Parts 3 and 4 most severe, collected value, median (Visit 2 Baseline): 14.0
- UDysRS Parts 1, 2, 3, and 4 average, absolute change from baseline, mean [1]: −4.82
- UDysRS Parts 1, 2, 3, and 4 average, absolute change from baseline, median [1]: −3.00
- UDysRS Parts 1, 2, 3, and 4 average, collected value, mean [1]: 25.33
- UDysRS Parts 1, 2, 3, and 4 average, collected value, median [1]: 25.33
- UDysRS Parts 1, 2, 3, and 4 average, relative change from baseline (%), mean [1]: −9.33%
- UDysRS Parts 1, 2, 3, and 4 average, relative change from baseline (%), median [1]: −10.6%
- UDysRS Parts 1, 2, 3, and 4 most severe, absolute change from baseline, mean [1]: −4.1
- UDysRS Parts 1, 2, 3, and 4 most severe, absolute change from baseline, median [1]: −2.0
- UDysRS Parts 1, 2, 3, and 4 most severe, collected value, mean [1]: 27.5
- UDysRS Parts 1, 2, 3, and 4 most severe, collected value, median [1]: 28.0
- UDysRS Parts 1, 2, 3, and 4 most severe, relative change from baseline (%), mean [1]: −10.2%
- UDysRS Parts 1, 2, 3, and 4 most severe, relative change from baseline (%), median [1]: −6.45%
- UDysRS Parts 3 and 4 average, absolute change from baseline, mean [1]: −2.49
- UDysRS Parts 3 and 4 average, absolute change from baseline, median [1]: −1.67
- UDysRS Parts 3 and 4 average, collected value, mean [1]: 11.60
- UDysRS Parts 3 and 4 average, collected value, median [1]: 10.33
- UDysRS Parts 3 and 4 average, relative change from baseline (%), mean [1]: −17.3%
- UDysRS Parts 3 and 4 average, relative change from baseline (%), median [1]: −20.0%
- UDysRS Parts 3 and 4 most severe, absolute change from baseline, mean [1]: −1.7
- UDysRS Parts 3 and 4 most severe, absolute change from baseline, median [1]: −1.0
- UDysRS Parts 3 and 4 most severe, collected value, mean [1]: 13.8
- UDysRS Parts 3 and 4 most severe, collected value, median [1]: 12.0
- UDysRS Parts 3 and 4 most severe, relative change from baseline (%), mean [1]: −15.8%
- UDysRS Parts 3 and 4 most severe, relative change from baseline (%), median [1]: −8.33%
- UDysRS Parts 1, 2, 3, and 4 average, absolute change from baseline, mean [2]: −6.51
- UDysRS Parts 1, 2, 3, and 4 average, absolute change from baseline, median [2]: −7.67
- UDysRS Parts 1, 2, 3, and 4 average, collected value, mean [2]: 23.64
- UDysRS Parts 1, 2, 3, and 4 average, collected value, median [2]: 23.00
- UDysRS Parts 1, 2, 3, and 4 average, relative change from baseline (%), mean [2]: −19.5%
- UDysRS Parts 1, 2, 3, and 4 average, relative change from baseline (%), median [2]: −21.9%
- UDysRS Parts 1, 2, 3, and 4 most severe, absolute change from baseline, mean [2]: −6.3
- UDysRS Parts 1, 2, 3, and 4 most severe, absolute change from baseline, median [2]: −8.0
- UDysRS Parts 1, 2, 3, and 4 most severe, collected value, mean [2]: 25.3
- UDysRS Parts 1, 2, 3, and 4 most severe, collected value, median [2]: 24.0
- UDysRS Parts 1, 2, 3, and 4 most severe, relative change from baseline (%), mean [2]: −19.0%
- UDysRS Parts 1, 2, 3, and 4 most severe, relative change from baseline (%), median [2]: −25.8%
- UDysRS Parts 3 and 4 average, absolute change from baseline, mean [2]: −3.31
- UDysRS Parts 3 and 4 average, absolute change from baseline, median [2]: −3.33
- UDysRS Parts 3 and 4 average, collected value, mean [2]: 10.78
- UDysRS Parts 3 and 4 average, collected value, median [2]: 9.67
- UDysRS Parts 3 and 4 average, relative change from baseline (%), mean [2]: −25.3%
- UDysRS Parts 3 and 4 average, relative change from baseline (%), median [2]: −31.5%
- UDysRS Parts 3 and 4 most severe, absolute change from baseline, mean [2]: −3.1
- UDysRS Parts 3 and 4 most severe, absolute change from baseline, median [2]: −4.0
- UDysRS Parts 3 and 4 most severe, collected value, mean [2]: 12.4
- UDysRS Parts 3 and 4 most severe, collected value, median [2]: 11.0
- UDysRS Parts 3 and 4 most severe, relative change from baseline (%), mean [2]: −21.0%
- UDysRS Parts 3 and 4 most severe, relative change from baseline (%), median [2]: −31.6%
- UDysRS sum of Part 3 items, average of all 3 assessments, NLX-112 vs placebo (day 28 and day 42): significantly greater change from baseline
- net reduction in UDysRS total score, more than placebo (day 42): 3.9 points
- UDysRS sum of Part 3 items, most severe assessment, vs baseline [3]: significant reduction
- UDysRS total score based on the average of 3 assessments, vs baseline [3]: significant reduction
- UDysRS Part 3 + 4, Δ from baseline [4]: +3 and +2 and −11 and −6 (2×)
- UDysRS Total, Δ from baseline [4]: −2 and +7 and −11 and −8 and −6
- amantadine-using patients with numerical reductions in UDysRS total score and total objective score (of the 5 amantadine-using patients on NLX-112): 3
- UDysRS Part 3 sum of items, average of assessment sessions, mean [5]: 21.5
- UDysRS Part 3 sum of items, highest score of assessment sessions, mean [5]: 24.7
- UDysRS Parts 3 + 4, average of assessment sessions, mean [5]: 14.1
- UDysRS Parts 3 + 4, highest score of assessment sessions, mean [5]: 15.5
- UDysRS Total (Parts 1 to 4), average of assessment sessions, mean [5]: 30.1
- UDysRS Total (Parts 1 to 4), highest score of assessment sessions, mean [5]: 31.6
- UDysRS Parts 3 + 4, highest score of assessment sessions, mean change from baseline (Δ D 28 (end of up-titration)): −1.7
- UDysRS Part 3 sum of items, average of assessment sessions, mean change from baseline (Δ D 28 (end of up-titration), p < 0.001 vs baseline): −5.5
- UDysRS Part 3 sum of items, highest score of assessment sessions, mean change from baseline [6]: −5.5
- UDysRS Parts 3 + 4, average of assessment sessions, mean change from baseline [6]: −2.5
- UDysRS Total (Parts 1 to 4), average of assessment sessions, mean change from baseline [6]: −4.8
- UDysRS Total (Parts 1 to 4), highest score of assessment sessions, mean change from baseline (Δ D 28 (end of up-titration), p < 0.05 vs baseline): −4.1
- UDysRS Part 3 sum of items, average of assessment sessions, mean change from baseline (Δ D 42 (end of stable dosing), p < 0.0001 vs baseline): −7.1
- UDysRS Part 3 sum of items, highest score of assessment sessions, mean change from baseline [7]: −7.8
- UDysRS Parts 3 + 4, average of assessment sessions, mean change from baseline [7]: −3.3
- UDysRS Total (Parts 1 to 4), average of assessment sessions, mean change from baseline [7]: −6.5
- UDysRS Parts 3 + 4, highest score of assessment sessions, mean change from baseline [8]: −3.1
- UDysRS Total (Parts 1 to 4), highest score of assessment sessions, mean change from baseline [8]: −6.3
